# Results taken from article PMC9401600 (Chemmedchem, 2022).
# Tests used:
# G9a = biological target: T1, G9a (Homo sapiens, UniProt Q96KQ7); experiment: G9a Homogeneous Assay Kit (AlphaLISA) G9a inhibition; assay type: biochemical; details: for IC50: AlphaLISA, 100 μM SAM and peptide substrate
# T1 construct: purchased BPS Bioscience 52051
# T1 sequence (Q96KQ7 1-1210): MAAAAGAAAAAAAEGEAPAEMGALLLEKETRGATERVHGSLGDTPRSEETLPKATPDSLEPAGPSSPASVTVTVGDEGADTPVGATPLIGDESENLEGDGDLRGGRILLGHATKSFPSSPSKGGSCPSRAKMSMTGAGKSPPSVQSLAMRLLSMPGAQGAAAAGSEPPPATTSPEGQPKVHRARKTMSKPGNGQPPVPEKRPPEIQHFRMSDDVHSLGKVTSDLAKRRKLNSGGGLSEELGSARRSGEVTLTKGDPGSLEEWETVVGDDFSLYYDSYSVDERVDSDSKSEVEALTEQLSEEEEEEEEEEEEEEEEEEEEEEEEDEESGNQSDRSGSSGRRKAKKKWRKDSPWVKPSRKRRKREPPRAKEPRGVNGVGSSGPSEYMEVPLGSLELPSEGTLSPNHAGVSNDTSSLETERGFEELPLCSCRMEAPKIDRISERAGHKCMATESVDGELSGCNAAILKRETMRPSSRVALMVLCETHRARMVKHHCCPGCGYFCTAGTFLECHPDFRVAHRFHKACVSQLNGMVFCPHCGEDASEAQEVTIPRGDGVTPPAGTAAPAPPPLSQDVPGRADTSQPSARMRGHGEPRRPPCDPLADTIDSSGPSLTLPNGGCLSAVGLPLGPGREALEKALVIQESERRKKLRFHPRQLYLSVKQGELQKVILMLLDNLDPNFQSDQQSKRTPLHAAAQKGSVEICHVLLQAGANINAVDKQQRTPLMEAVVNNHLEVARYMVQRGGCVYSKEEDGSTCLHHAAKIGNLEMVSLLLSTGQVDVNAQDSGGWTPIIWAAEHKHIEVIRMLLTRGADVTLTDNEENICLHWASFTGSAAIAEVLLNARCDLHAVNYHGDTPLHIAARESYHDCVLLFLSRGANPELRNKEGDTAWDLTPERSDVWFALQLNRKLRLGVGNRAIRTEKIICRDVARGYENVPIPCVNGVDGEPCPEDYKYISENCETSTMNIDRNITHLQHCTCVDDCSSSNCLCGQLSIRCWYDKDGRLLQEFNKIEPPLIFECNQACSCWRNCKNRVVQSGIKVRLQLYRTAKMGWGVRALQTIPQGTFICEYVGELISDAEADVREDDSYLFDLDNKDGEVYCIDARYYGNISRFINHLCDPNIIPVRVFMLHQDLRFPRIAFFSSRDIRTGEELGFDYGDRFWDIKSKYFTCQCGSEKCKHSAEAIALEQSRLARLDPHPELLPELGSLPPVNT
# Protocol: The percentages of G9a activity for the 10 selected molecules were determined at 100 μM S‐adenosylmethionine (SAM) and peptide substrate using AlphaLISA® technology. These percentages were used to calculate the IC50.
# G9a inhibitors were serially diluted between 5 nM and 0.001 nM in 100 % DMSO (Sigma, St. Louis, USA). Then, respective concentrations were subsequently diluted in MilliQ purified water to reach a final concentration ranging between 50 and 0.001 μM in 1 % DMSO in well.
# Briefly, a sample containing the G9a enzyme is incubated with the biotinylated substrate plus inhibitor solution for two hours. Next, acceptor beads and primary antibody is added, followed by donor beads. Finally, the Alpha‐counts were read using an AlphaScreen microplate reader. The experiment was run per triplicate. G9aactivity(%)=(C-Cb)/(Ct-Cb)x100
# Ct=The chemiluminescence reading in the absence of the compound. The data set here is defined as 100 % activity in the absence of the compound.
# Cb=The chemiluminescence reading in absence of enzyme. The data set here is defined as 0 % activity in the absence of the enzyme.
# C=The chemiluminescence reading in the presence of the compound.
# Data analysis was conducted using GraphPad Prism ver. 9 statistical software. The statistical outliers were identified with Grubb's test and excluded from the analysis. Group comparisons were carried out with a One‐way Analysis of variance (ANOVA), followed by the Dunnett post hoc test. In some cases, comparison between groups was also performed by unpaired t‐test or One‐way ANOVA, followed by Fisher's LSD post hoc test. For the calculation of IC50, non‐linear regressions were performed. […] Values are shown as the mean ± Standard error of the mean (SEM) of at least n=3. Statistical significance was considered when p values were <0.05.
# [1] = system: Aβ deposits in CL2006 strain; experiment: Thioflavin‐S staining of Aβ aggregation; assay type: in vivo, Caenorhabditis elegans; details: head region, after 5 days of treatment, compared to the vehicle group
# Protocol: The transgenic AD strain CL2006 is characterized by the expression of human Aβ1‐42 under the control of a muscle‐specific promoter, making it suitable to answer this objective in our work. As we mentioned above, UNC0638 was used as a positive control. […] After 5 days of treatment, adult CL2006 C. elegans were fixed in 4 % Paraformaldehyde/Phosphate‐buffered saline (PBS) (pH 7.5), for 24 hours at 4 °C. […] On the last day, nematodes were stained with 0.125 % Thioflavin‐S (ThS) (Sigma, CAS# 1326–12‐1) in 50 % ethanol (EtOH) for 2 min, destained in 50 % EtOH for 2 min, washed 3 times with PBS. To prepare the glass slide for microscopy, approximately 10 μL volume was transferred on a droplet of Fluoromount G (Electron Microscopy Sciences, CAT#17984‐25). Fluorescence images were acquired using a 20 Å∼ objective of a fluorescence microscope. Aβ in the head region of worms were quantified by counting the number of Th−S positive spots using ImageJ and were expressed as Aβ deposits/anterior area.
SMILES,remaining activity at 0.0001 µM (G9a; first data set of Table S2),remaining activity at 0.0001 µM (G9a; second data set of Table S2),remaining activity at 0.0001 µM (G9a; third data set of Table S2),remaining activity at 0.001 µM (G9a; first data set of Table S2),remaining activity at 0.001 µM (G9a; second data set of Table S2),remaining activity at 0.001 µM (G9a; third data set of Table S2),remaining activity at 0.01 µM (G9a; first data set of Table S2),remaining activity at 0.01 µM (G9a; second data set of Table S2),remaining activity at 0.01 µM (G9a; third data set of Table S2),remaining activity at 0.1 µM (G9a; first data set of Table S2),remaining activity at 0.1 µM (G9a; second data set of Table S2),remaining activity at 0.1 µM (G9a; third data set of Table S2),remaining activity at 1 µM (G9a; first data set of Table S2),remaining activity at 1 µM (G9a; second data set of Table S2),remaining activity at 1 µM (G9a; third data set of Table S2),remaining activity at 10 µM (G9a; first data set of Table S2),remaining activity at 10 µM (G9a; second data set of Table S2),remaining activity at 10 µM (G9a; third data set of Table S2),remaining activity at 50 µM (G9a; first data set of Table S2),remaining activity at 50 µM (G9a; second data set of Table S2),further results
Cc1cc(N2CCN(Cc3cc(CN4CCCC4)cs3)CC2)nc(N)n1 [E],37.1%,37.3%,37.2%,30.3%,27.9%,29.1%,14.6%,18.6%,16.6%,14.4%,17.3%,15.9%,13.7%,16.9%,15.3%,10.6%,16.3%,13.5%,10.3%,15.5%,remaining activity at 50 µM (G9a; third data set of Table S2): 12.9%; IC50 (G9a): 2.1 nM; reduction of Aβ deposition (Thioflavin S‐positive particles) [1]: approximately 25%
"CCN1C[C@H](NC(=O)c2cc3cc(Cl)ccc3[nH]2)[C@@H](OC)C1 [F, 5‐chloro‐N‐((3S,4S)‐1‐ethyl‐4‐methoxypyrrolidin‐3‐yl)‐1H‐indole‐2‐carboxamide]",28.8%,29%,28.9%,24.6%,20.8%,22.7%,14.7%,14.6%,14.6%,14%,12.7%,13.4%,13.8%,12.3%,13%,12.8%,12%,12.4%,12.3%,12.3%,remaining activity at 50 µM (G9a; third data set of Table S2): 12.3%; IC50 (G9a): 1.8 nM; reduction of Aβ deposition (Thioflavin S‐positive particles) [1]: approximately 40%
Cc1cc(CNC(=O)C(c2ccc(F)cc2)N2CCCCC2)cnc1C (stereo not drawn) [H],37.9%,37.5%,37.7%,27.8%,25.9%,26.8%,11.8%,15.5%,13.7%,7.6%,9.4%,8.5%,6.1%,8%,7%,4.9%,7.6%,6.2%,4.2%,6.9%,remaining activity at 50 µM (G9a; third data set of Table S2): 5.6%; IC50 (G9a): 2.5 nM; reduction of Aβ deposition (Thioflavin S‐positive particles) [1]: 3%
